Measured values taken from patent US5556840A, “2',5'-phosphorothioate oligoadenylates as anitiviral agents” (Temple University - Of The Commonwealth System of Higher …, priority 1994, dated 1996).
Entries after “also recorded” stand apart in the source; their conditions may differ. Like-named read-outs stand apart in the source and are kept apart here.

Key:
[1] = system: RNase L; experiment: rRNA cleavage assay using L929 cell extracts (28S and 18S rRNA); assay type: biochemical, mouse; settings: L929 cell extracts; '>' = no activation at that concentration
Procedure: Activation of RNase L by 2',5'-phosphorothioate adenylate trimer cores and their 5'-monophosphates was also measured in an rRNA cleavage assay using L929 cell extracts.
The corresponding 5'-monophosphates pARp ARp A, pASp ARp A (at 10^-8 M) and pARp ASp A (at 10^-7 M) activated RNase L to cleave 28S and 18S rRNA.

[2] = system: phosphodiesterases; experiment: Metabolic stability, general statements; assay type: in vitro ADME
[3] = system: tobacco mosaic virus (TMV); experiment: TMV replication in intact Nicotiana glutinosa plants (local lesions); assay type: in vivo; settings: 2 × 10^-5 M in infecting solution; 48 hr after infection; half-leaves of N. glutinosa
Procedure: Carborundum (400 mesh) was sprinkled lightly onto leaves. Solutions containing 0.2 micrograms per ml of TMV and 2×10^-5 M 2',5'-phosphorothioate oligoadenylate in phosphate buffer were applied onto half-leaves of N. glutinosa with either a gloved finger or with a pipettor. The remaining half-leaves were controls (inoculated with the buffer solution containing TMV, but no active compound). The infection was allowed to proceed 48 h under continuous illumination of about 1500 Lx at which time local virus lesions appeared. Inhibition of TMV replication was calculated as the percent of local lesions produced in 2',5'-phosphorothioate oligoadenylate-treated half-leaves compared to control half-leaves.
^4 Inhibition of TMV replication was detected 48 hr after infection
and was calculated as the percent of local lesions produced in treated
halfleaves of N. glutinosa compared to control halfleaves.

[4] = system: RNase L; experiment: Activation or inhibition of RNase L, general statements without assay named; assay type: biochemical
[5] = system: HIV reverse transcriptase; experiment: HIV reverse transcriptase activity; assay type: biochemical, HIV (HTLV-IIIB); settings: 200 uM; for Reverse Transcriptase Activity: control 187×10^3 cpm (reactions 1-4), 273×10^3 cpm (reactions 5-13)
Procedure: HIV reverse transcriptase (RNA-dependent DNA nucleotidyl-transferase) activity was assayed by a modification of the procedure of Poiesz et al. (Poiesz, B. J., Ruscetti , F. W., Gazdar, A. F., Bunn, P. S., Minna, J. D., and Gallo, R. C., Proc. Natl. Acad. Sci. U.S.A. 77: 7415-7419 (1980)).
Cultured H-9 cells are grown at 10^6 cells/ml in RPMI-1640 medium and 20% heat-inactivated fetal calf serum. Cell suspensions are centrifuged (1000×g, 10 min.) and the supernatant is removed. Virus particles are precipitated from this cell-free supernatant to which 0.3 ml of 4M NaCl and 3.6 ml of 30% (weight/volume) polyethylene glycol are added. The suspension is placed on ice for 2 hr following centrifugation at 15,000×g for 30 min at 0° C. The precipitate is resuspended in 200 microliters of 50% glycerol (vol./vol.)/25 mM Tris-HCl (pH 7.5)/5 mM dithiothreitol/50 mM KCl/0.025% Triton X-100. Virus particles are lysed by the addition of 100 microliters of 0.9% Triton X-100/1.5M KCl. Reverse transcriptase assays are performed at 37° C. for 1 hr with 10 microliters of the lysed virus solution in a final reaction volume of 100 microliters containing: 40 mM Tris-HCl (pH 7.8), 4 mM dithiothreitol, 45 mM KCl and 2.5 micrograms of template primer [poly(A)-dT15, 0.5 micrograms/microliter] (with a signal Mg^++ concentration of 10 mM). At this time, 10 microliters of the 2',5'-phosphorothioate oligoadenylate is added to a final concentration of 200 micromolar. Reaction mixtures also contain 4 micromoles of [^3 H]dTTP. Reactions are stopped by the addition of cold 5% trichloroacetic acid and filtered through nitrocellulose discs. The discs are dried and the radioactivity bound to the discs is determined. Reverse transcriptase activity is expressed as the percent relative to a control.
The compounds were assayed in the above manner in two sets, each set having a separate set of controls. The compounds of reactions 1-4 were assayed against control #1, which was 187×10^3 cpm. The compounds used in reactions 5-13 were assayed against control #2, which was 273×10^3 cpm.

[6] = system: serum phosphodiesterases; experiment: Hydrolysis by serum phosphodiesterases
[7] = system: 2'-phosphodiesterase (2'-PDE), L cell extract; experiment: Hydrolysis by 2'-phosphodiesterase in L cell extract; assay type: in vitro ADME
Text: The four 2,5-phosphorothioate adenylate trimer cores were further characterized by hydrolysis with the enzyme 2'-phosphodiesterase ("2'-PDE"), an exoribonuclease found in L cell extract The enzyme cleaves from the 2'/3'-terminus.
(§1) The metabolic stability of the 2,5'-phosphorothioate dimer and trimer cores is markedly greater than authentic 2-5A. The rate of hydrolysis of the trimer cores by the 3'-exonuclease SVPD is, in order of decreasing stability: ASp ARp A>ARp ARp A>>>A3. […] The 3'->'5'direction of stepwise cleavage by SVPD is blocked by an Sp configuration, preventing cleavage of the upstream adjacent phosphorothioate linkage. […] With both SVPD and 2'-PDE, the dimer cores (either ARp A or ASp A) accumulate following hydrolysis of the ARp ARp A, ASp ARp A and ARp ASp A trimer cores. Hydrolysis of the 2-5A molecule by SVPD and 2'-PDE proceeds from the 2'/3'-terminus. Therefore, introduction of the phosphorothioate group into the trimer core results in the accumulation of the ARp A or ASp A dimer cores from the 5'-terminus and the accumulation of AMPS from the 2'/3'-terminus (Table 3). With authentic A3, there is no detectable accumulation of A2 following hydrolysis by SVPD or 2'-PDE.

[8] = system: SVPD; experiment: Hydrolysis by SVPD (snake venom phosphodiesterase); assay type: in vitro ADME
Procedure: It is known that the enzyme SVPD preferentially cleaves Rp-3',5'- or 2',5'-phosphorothioate linkages from the 2'/3'-terminus. Nelson et al, J. Org. Chem. 49:2314-2317 (1984); Eppstein et al, J. Biol. Chem. 261:5999-6003 (1986); Lee et al, Biochemistry 24:551-555 (1985). SVPD hydrolysis of the chemically synthesized dimer core ARp A yielded adenosine and AMPS in a molar ratio of 1:1, respectively; the half-life was 3 hours (Table 3).
as §1

[9] = system: RNase L; experiment: Core-cellulose assay: activation of partially-purified RNase L to hydrolyze poly(U)-3'-[32P]pCp; assay type: biochemical, mouse; settings: poly(U)-3'-[32P]pCp substrate
Procedure: FIG. 1B represents the results of a core-cellulose assay indicating the ability of the 2',5'-phosphorothioate adenylate trimer cores and 5'-monophosphates to activate partially-purified RNase L from L929 cell extracts to hydrolyze the substrate polY(U)-3'-[^32 P]pCp. Activation of RNase L was determined by conversion of poly (U )-3'-[^32 P]pCp to acid-soluble fragments. 100% represents 30,000 cpm of labelled poly(U)-3'-[^32 P]pCp bound to glass fiber filters. The curves are labelled in the same manner as FIG. 1A.
The 2',5'-phosphorothioate cores, with one exception, have the correct stereoconfiguration to activate RNase L. The activation of partially-purified RNase L by the 2',5'-phosphorothioates was measured according to the core-cellulose assay of Silverman, Analyt. Biochem. 144:450-460 (1985) which relies on hydrolysis of the substrate poly(U)-3-[^32 P]pCp. […] (FIG. 1B) The order of activation of the trimer cores and the corresponding 5'-monophosphates is: RpRp>SpRp>RpSp (FIG. 1B).

Substance | concentration at which RNase L was activated to cleave 28S and 18S rRNA [1] | metabolic stability (result in words) [2] | Percent TMV Inhibition [3] [%] | effect on RNase L activation (result in words) [4] | Percent Inhibition of HIV reverse transcriptase [5] [%] | Reverse Transcriptase Activity [5] | hydrolysis by serum phosphodiesterases (result in words) [6] | half life, hydrolysis by L cell extract [7] [days] | hydrolysis by SVPD (result in words) [8] | hydrolysis by SVPD (result in words) ([8]; listed as ARp ASp A) | activation of RNase L, core-cellulose assay (result in words) [9]
(Rp)-P-Thioadenylyl-(2'-5')-(Sp)-P-thiodenylyl-(2'-5')-adenosine [Compound 10A] | > 10^-4 M | metabolicly stable | 70 | activates RNase L | 10 | 247 10^3 cpm | not cleaved | 20 | not substrates for SVPD; also recorded: not cleaved | not substrates of SVPD | –
5'-O-Phosphoryl-(Rp)-thioadenylyl-(2'-5')-(Rp)-thioadenylyl-(2'-5')-adenosine [pARp ARp A] | 10^-8 M | metabolically unstable and is readily attacked by phosphodiesterases | 75 | – | 25 | 144 10^3 cpm | – | – | – | – | most efficient activator of RNase L
